Two compounds from US20260217702A1, “NOVEL IMIDAZOQUINOLINES WITH IMMUNOSTIMULATORY EFFECTS” (Synovo GmbH, priority 2022, published 2026) can be followed below.

One series relates to IFNa relative to TNFa. As to the kind of experiment: Stimulation of cytokines in vivo (plasma cytokines, cytometric bead array). As to conditions: female C57B6/J mice, i.p., 12 μmol/kg, citrate in saline, EDTA plasma at various times; reference Resiquimod. The procedure:
Female C57B6/J mice ca 18-20g ca. 8 weeks old are treated i.p. with E1 or E13 (citrate in saline) at a dose of12 μmol/kg. The reference substance is Resiquimod. At various times after application blood samples of approximately 25 μl are taken from the tail vein. The resulting EDTA plasma is analysed for cytokines using a cytometric bead array.

In another series the test system is CT26 tumor. As to the kind of experiment: Application in cancer therapy: CT26 tumor in BALBc mice. The format is in vivo. As to conditions: i.p. On the procedure: Female BALBc mice carrying the CT26 tumor type are monitored until tumors are 100-150 mm^3 in volume. Animals are treated via injection i.p. with substances formulated at citrate salts in saline solution. Doses for E 1 are 3, 6 and 12 μmol/kg. At 12 μmol/kg, weight loss of ca. 5% is observed within 24 h. […] In a similar format, Female C57B6 mice carrying the MC38 tumor type co-injected with myofibroblasts (5 fibroblasts: 1 tumor cell-50,000, tumor cells) are monitored until tumors are 100-150 mm^3 in volume. Animals are treated via injection i.p. with either Vehicle or a Rat anti-PD-1 antibody (RMP1-14-CP157) 100 μg, or peritumoral 20 or 50 μg every 96 h. Certain groups receive the antibody alone, or receive in addition, E1 6 μmol/kg or E13 6 μmol/kg, other groups receive E1 and E13 alone at the same dose. Weight loss is similar to the study above and is between 5 and 8% of the starting weight for all treatments. Tumors treated with E1 or E13 alone remain static or decrease in size by up to 30% in size for up to 72 h following treatment. Tumors treated with E1 or E13 in combination with antiPD-1 decline (2 from 8) or are eliminated completely (6 from 8 animals) after the third antibody treatment.

For `CCCCc1nc2c(N)nc3ccccc3c2n1CC1CCNCC1` [Example E1, 2-butyl-1-(piperidin-4-ylmethyl)-1H-imidazo[4,5-c]quinolin-4-amine], the “secretion of IFNa relative to TNFa (ratio) compared to the reference” value with IFNa relative to TNFa is reported as “higher ratio”. Also, in the series on CT26 tumor (CT26 tumors 100-150 mm^3 at start, doses 3, 6 and 12 μmol/kg, for up to 72 h following treatment), the “tumor size following treatment” value is reported as “remain static in size”. Also, the weight loss result in the series with CT26 tumor (female BALBc mice with CT26 tumor, citrate salt in saline, 12 μmol/kg, within 24 h) was “ca. 5%”.

For `CCCCc1nc2c(N)nc3ccccc3c2n1CCC1CCN(C(=O)CN(C)CC(=O)N(C)[C@H]2C[C@@H](C)O[C@@H](C[C@@H]3[C@@H](C)[C@H](O[C@H]4C[C@@](C)(OC)[C@@H](O)[C@H](C)O4)[C@@H](C)C(=O)O[C@H](CC)[C@@](C)(O)[C@H](O)[C@@H](C)N(C)C[C@H](C)C[C@@]3(C)O)[C@@H]2O)CC1` [Example E13], the “secretion of IFNa relative to TNFa (ratio) compared to the reference” value in the series on IFNa relative to TNFa was “higher ratio”.
